Assays:
Format in all cases: biochemical
Details in all cases: 200 μg/ml Poly Glu-Tyr (4:1), ATP 1 uM, 90 min room temperature, luminescence
[1] = target: T1, Recombinant JAK1 (Amino acids 850-1154) (Homo sapiens, UniProt P23458); test: Kinase-Glo Luminescent Kinase Assay, recombinant JAK1
T1 construct: Recombinant JAK1 (Amino acids 850-1154; NM_002227.2); made in house; host or cells: baculovirus expression system (Bac-to-Bac)
Text: (§1) Recombinant JAK1 (Amino acids 850-1154; NM_002227.2), JAK2 (Amino acids 808-1132; NM_004972.3) and JAK3 (Amino acids 781-1124; NM_000215.3) used in the studies were expressed using Invitrogen's Bac-to-Bac baculovirus expression system according to manufacturer's instructions. Adenosine 5′-triphosphate was obtained from Sigma Aldrich chemicals (Cat # A7699). Poly Glu-Tyr (4:1) sodium salt was obtained from Sigma Aldrich (Cat # P0275), Kinase Glo® Luminescent Kinase assay kit was obtained from Promega (Cat # V6713) Kinase activity was assessed by Promega Kinase-Glo® Luminescent Kinase Assay kit using 200 μg/ml Poly Glu-Tyr (4:1) as substrate and ATP at 1 uM concentration. The reactions were carried out in 384 well plates in total reaction volume of 20 uL. Reaction mixtures contained 50 mM HEPES pH 7.4, 5 mM MgCl2, 1 mM DTT, 0.01% BSA, 0.01% Tween 20. Kinase was pre-incubated with compounds or 1% DMSO for 5 min before addition of substrate and ATP to check for inhibition. Kinase reactions were carried out at room temperature for 90 min. The reactions were stopped by adding 5 μl of Kinase Glo® reagent & 10 μl of reaction mixture followed by measuring luminescence. The luminescent signal is correlated with the amount of ATP present at the end of kinase reaction and is inversely correlated with the amount of kinase activity. For each data point, % inhibition is calculated based on uninhibited reaction (without compound) which is considered as 100% activity over no enzyme or substrate controls. Dose response data is then fit using a four parameter logistic equation using Graph-pad Prism 5 software to determine inhibition constant 50 (IC50).

[2] = target: T2, Recombinant JAK2 (Amino acids 808-1132) (Homo sapiens, UniProt O60674); test: Kinase-Glo Luminescent Kinase Assay, recombinant JAK2
T2 construct: JAK2 (Amino acids 808-1132; NM_004972.3); made in house; host or cells: baculovirus expression system (Bac-to-Bac)
Text: as §1

[3] = target: T3, Recombinant JAK3 (Amino acids 781-1124) (Homo sapiens, UniProt P52333); test: Kinase-Glo Luminescent Kinase Assay, recombinant JAK3
T3 construct: JAK3 (Amino acids 781-1124; NM_000215.3); made in house; host or cells: baculovirus expression system (Bac-to-Bac)
Text: as §1

T3 sequence (P52333 781-1124): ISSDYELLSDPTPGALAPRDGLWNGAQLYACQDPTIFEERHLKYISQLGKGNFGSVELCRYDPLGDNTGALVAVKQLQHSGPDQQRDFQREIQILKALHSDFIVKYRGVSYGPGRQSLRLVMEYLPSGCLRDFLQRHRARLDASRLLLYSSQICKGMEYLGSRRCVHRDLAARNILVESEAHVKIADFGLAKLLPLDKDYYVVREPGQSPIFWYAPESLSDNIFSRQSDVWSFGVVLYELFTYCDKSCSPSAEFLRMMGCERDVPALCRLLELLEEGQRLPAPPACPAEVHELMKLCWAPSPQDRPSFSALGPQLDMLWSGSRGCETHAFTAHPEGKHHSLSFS
T2 sequence (O60674 808-1132): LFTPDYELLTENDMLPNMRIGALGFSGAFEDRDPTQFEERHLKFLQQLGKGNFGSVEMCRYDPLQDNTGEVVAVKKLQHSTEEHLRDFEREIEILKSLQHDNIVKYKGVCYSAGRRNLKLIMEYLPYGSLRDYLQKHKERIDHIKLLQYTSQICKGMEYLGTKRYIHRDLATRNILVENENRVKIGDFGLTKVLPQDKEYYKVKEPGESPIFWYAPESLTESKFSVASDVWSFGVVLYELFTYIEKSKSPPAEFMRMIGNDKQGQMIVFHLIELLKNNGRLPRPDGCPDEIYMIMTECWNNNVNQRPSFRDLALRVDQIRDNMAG
T1 sequence (P23458 850-1154): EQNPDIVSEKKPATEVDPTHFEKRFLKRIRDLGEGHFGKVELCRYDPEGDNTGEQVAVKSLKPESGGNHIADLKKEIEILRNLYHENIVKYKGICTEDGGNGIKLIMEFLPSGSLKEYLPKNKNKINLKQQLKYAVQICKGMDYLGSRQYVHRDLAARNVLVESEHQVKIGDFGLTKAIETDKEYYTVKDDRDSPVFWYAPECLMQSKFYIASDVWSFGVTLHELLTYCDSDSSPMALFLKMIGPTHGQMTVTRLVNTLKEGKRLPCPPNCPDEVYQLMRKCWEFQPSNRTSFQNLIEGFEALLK

Row | Compound | IC50 [1] | IC50 [2] | IC50 [3]
1 | CC(C)(C)OC(=O)N1CCCC(c2ncnc3cnc4[nH]ccc4c23)C1 (stereo not drawn) [Comp. 55, 3-(3H-3,4,6,8-Tetraaza-cyclopenta[a]naphthalen-9-yl)-piperidine-1-carboxylic acid tert-butyl ester] | 0.001 to 0.02 µM | > 0.02 µM | > 0.02 µM
2 | N#CCC(=O)N1CCCC(c2ccnc3cnc4[nH]ccc4c23)C1 (stereo not drawn) [Ex. 1, 3-oxo-3-[3-(3H-pyrrolo[3,2-f][1,7]naphthyridin-9-yl)-1-piperidyl]propanenitrile] | 0.001 to 0.02 µM | 0.001 to 0.02 µM | 0.001 to 0.02 µM
3 | N#CCC(=O)N1CCC[C@H](c2ccnc3cnc4[nH]ccc4c23)C1 [Ex. 1A, (R)3-oxo-3-[3-(3H-pyrrolo[3,2-f][1,7]naphthyridin-9-yl)-1-piperidyl]propanenitrile] | > 0.02 µM | > 0.02 µM | > 0.02 µM
4 | N#CCC(=O)N1CCC[C@@H](c2ccnc3cnc4[nH]ccc4c23)C1 [Ex. 1B, (S)3-oxo-3-[3-(3H-pyrrolo[3,2-f][1,7]naphthyridin-9-yl)-1-piperidyl]propanenitrile] | 0.001 to 0.02 µM | 0.001 to 0.02 µM | < 0.001 µM
5 | O=C(CC(F)(F)F)N1CCC[C@H](c2ccnc3cnc4[nH]ccc4c23)C1 [Ex. 4A, (R)3,3,3-trifluoro-1-[3-(3H-pyrrolo[3,2-f][1,7]naphthyridin-9-yl)-1-piperidyl]propan-1-one] | 0.001 to 0.02 µM | 0.001 to 0.02 µM | 0.001 to 0.02 µM
6 | CCS(=O)(=O)N1CCCC(c2ccnc3cnc4[nH]ccc4c23)C1 (stereo not drawn) [Ex. 9, 9-(1-ethylsulfonyl-3-piperidyl)-3H-pyrrolo[3,2-f][1,7]naphthyridine] | 0.001 to 0.02 µM | 0.001 to 0.02 µM | 0.001 to 0.02 µM
7 | CS(=O)(=O)N1CCCC(c2ccnc3cnc4[nH]ccc4c23)C1 (stereo not drawn) [Ex. 10, 9-(1-methylsulfonyl-3-piperidyl)-3H-pyrrolo[3,2-f][1,7]naphthyridine] | 0.001 to 0.02 µM | 0.001 to 0.02 µM | 0.001 to 0.02 µM
8 | CS(=O)(=O)N1CCC[C@@H](c2ccnc3cnc4[nH]ccc4c23)C1 [Ex. 10B, (S)9-(1-methylsulfonyl-3-piperidyl)-3H-pyrrolo[3,2-f][1,7]naphthyridine] | 0.001 to 0.02 µM | 0.001 to 0.02 µM | 0.001 to 0.02 µM
9 | CC(C)S(=O)(=O)N1CCCC(c2ccnc3cnc4[nH]ccc4c23)C1 (stereo not drawn) [Ex. 11, 9-(1-isopropylsulfonyl-3-piperidyl)-3H-pyrrolo[3,2-][1,7]naphthyridine] | > 0.02 µM | > 0.02 µM | > 0.02 µM
10 | CS(=O)(=O)CC(=O)N1CCCC(c2ccnc3cnc4[nH]ccc4c23)C1 (stereo not drawn) [Ex. 12, 2-methylsulfonyl-1-[3-(3H-pyrrolo[3,2-f][1,7]naphthyridin-9-yl)-1-piperidyl]ethanone] | 0.001 to 0.02 µM | 0.001 to 0.02 µM | > 0.02 µM
11 | CC(C)NC(=O)N1CCCC(c2ccnc3cnc4[nH]ccc4c23)C1 (stereo not drawn) [Ex. 13, N-isopropyl-3-(3H-pyrrolo[3,2-f][1,7]naphthyridin-9-yl)piperidine-1-carboxamide] | > 0.02 µM | > 0.02 µM | > 0.02 µM
12 | N#CCC(=O)N1CCC(c2ccnc3cnc4[nH]ccc4c23)C1 (stereo not drawn) [Ex. 14, 3-oxo-3-[3-(3H-pyrrolo[3,2-f][1,7]naphthyridin-9-yl)pyrrolidin-1-yl]propanenitrile] | 0.001 to 0.02 µM | 0.001 to 0.02 µM | > 0.02 µM
13 | N#CCC(=O)N1CC[C@H](c2ccnc3cnc4[nH]ccc4c23)C1 [Ex. 14A, (R)3-oxo-3-[3-(3H-pyrrolo[3,2-f][1,7]naphthyridin-9-yl)pyrrolidin-1-yl]propanenitrile] | > 0.02 µM | > 0.02 µM | > 0.02 µM
14 | N#CCC(=O)N1CC[C@@H](c2ccnc3cnc4[nH]ccc4c23)C1 [Ex. 14B, (S)3-oxo-3-[3-(3H-pyrrolo[3,2-f][1,7]naphthyridin-9-yl)pyrrolidin-1-yl]propanenitrile] | 0.001 to 0.02 µM | 0.001 to 0.02 µM | > 0.02 µM
15 | O=C(CC(F)(F)F)N1CCC(c2ccnc3cnc4[nH]ccc4c23)C1 (stereo not drawn) [Ex. 15, 3,3,3-trifluoro-1-[3-(3H-pyrrolo[3,2-f][1,7]naphthyridin-9-yl)pyrrolidin-1-yl]propan-1-one] | 0.001 to 0.02 µM | 0.001 to 0.02 µM | > 0.02 µM
16 | O=C(CC(F)(F)F)N1CC[C@H](c2ccnc3cnc4[nH]ccc4c23)C1 [Ex. 15A, (R)3,3,3-trifluoro-1-[3-(3H-pyrrolo[3,2-f][1,7]naphthyridin-9-yl)pyrrolidin-1-yl]propan-1-one] | > 0.02 µM | > 0.02 µM | > 0.02 µM
17 | N#CCS(=O)(=O)N1CCC(c2ccnc3cnc4[nH]ccc4c23)C1 (stereo not drawn) [Ex. 16, 2-[3-(3H-pyrrolo[3,2-f][1,7]naphthyridin-9-yl)pyrrolidin-1-yl]sulfonylacetonitrile] | 0.001 to 0.02 µM | 0.001 to 0.02 µM | > 0.02 µM
18 | O=S(=O)(N1CCC(c2ccnc3cnc4[nH]ccc4c23)C1)C(F)(F)F (stereo not drawn) [Ex. 17, 9-[1-(trifluoromethylsujlfonyl)pyrrolidin-3-yl]-3H-pyrrolo[3,2-f][1,7]naphthyridine] | > 0.02 µM | 0.001 to 0.02 µM | > 0.02 µM
19 | CC(C)CS(=O)(=O)N1CCC(c2ccnc3cnc4[nH]ccc4c23)C1 (stereo not drawn) [Ex. 18, 9-(1-isobutylsulfonylpyrrolidin-3-yl)-3H-pyrrolo[3,2-f][1,7]naphthyridine] | 0.001 to 0.02 µM | 0.001 to 0.02 µM | > 0.02 µM
20 | CCS(=O)(=O)N1CCC(c2ccnc3cnc4[nH]ccc4c23)C1 (stereo not drawn) [Ex. 19, 9-(1-ethylsulfonylpyrrolidin-3-yl)-3H-pyrrolo[3,2-f][1,7]naphthyridine] | 0.001 to 0.02 µM | 0.001 to 0.02 µM | > 0.02 µM
21 | CS(=O)(=O)N1CCC(c2ccnc3cnc4[nH]ccc4c23)C1 (stereo not drawn) [Ex. 20, 9-(1-methylsulfonylpyrrolidin-3-yl)-3H-pyrrolo[3,2-f][1,7]naphthyridine] | 0.001 to 0.02 µM | 0.001 to 0.02 µM | > 0.02 µM
22 | CC(C)CC(=O)N1CCCC(c2ncnc3cnc4[nH]ccc4c23)C1 (stereo not drawn) [Ex. 21, 3-Methyl-1-[3-(3H-3,4,6,8-tetraazacyclopenta[a]naphthalen-9-yl)-piperidin-1-yl]-butan-1-one] | > 0.02 µM | > 0.02 µM | > 0.02 µM
23 | CC(C)C(=O)N1CCCC(c2ncnc3cnc4[nH]ccc4c23)C1 (stereo not drawn) [Ex. 22, 2-Methyl-1-[3-(3H-3,4,6,8-tetraazacyclopenta[a]naphthalen-9-yl)-piperidin-1-yl]-propan-1-one] | > 0.02 µM | > 0.02 µM | > 0.02 µM
24 | N#CCC(=O)N1CCCC(c2ncnc3cnc4[nH]ccc4c23)C1 (stereo not drawn) [Ex. 23, 3-Oxo-3-[3-(3H-3,4,6,8-tetraazacyclopenta[a]naphthalen-9-yl)-piperidin-1-yl]-propionitrile] | 0.001 to 0.02 µM | 0.001 to 0.02 µM | 0.001 to 0.02 µM
25 | N#CCC(=O)N1CCC[C@@H](c2ncnc3cnc4[nH]ccc4c23)C1 [Ex. 23A, (R)3-Oxo-3-[3-(3H-3,4,6,8-tetraazacyclopenta[a]naphthalen-9-yl)-piperidin-1-yl]-propionitrile] | > 0.02 µM | > 0.02 µM | > 0.02 µM
26 | O=C(CC(F)(F)F)N1CCCC(c2ncnc3cnc4[nH]ccc4c23)C1 (stereo not drawn) [Ex. 24, 3,3,3-Trifluoro-1-[3-(3H-3,4,6,8-tetraazacyclopenta[a]naphthalen-9-yl)-piperidin-1-yl]-propan-1-one] | 0.001 to 0.02 µM | 0.001 to 0.02 µM | > 0.02 µM
27 | O=C(CC(F)(F)F)N1CCC[C@@H](c2ncnc3cnc4[nH]ccc4c23)C1 [Ex. 24A, (R)3,3,3-Trifluoro-1-[3-(3H-3,4,6,8-tetraazacyclopenta[a]naphthalen-9-yl)-piperidin-1-yl]-propan-1-one] | > 0.02 µM | > 0.02 µM | > 0.02 µM
28 | O=S(=O)(CC(F)(F)F)NC1CCN(c2ccnc3cnc4[nH]ccc4c23)C1 (stereo not drawn) [Ex. 90, 2,2,2-trifluoro-N-[1-(3H-pyrrolo[3,2-f][1,7]naphthyridin-9-yl)pyrrolidin-3-yl] ethanesulfonamide] | – | 0.001 to 0.02 µM | 0.001 to 0.02 µM
29 | O=S(=O)(NC1CCN(c2ccnc3cnc4[nH]ccc4c23)C1)C1CC1 (stereo not drawn) [Ex. 91, N-[1-(3H-pyrrolo[3,2-f][1,7]naphthyridin-9-yl)pyrrolidin-3-yl]cyclopropanesulfon-amide] | – | 0.001 to 0.02 µM | > 0.02 µM
30 | CC(C)S(=O)(=O)NC1CCN(c2ccnc3cnc4[nH]ccc4c23)C1 (stereo not drawn) [Ex. 92, N-[1-(3H-pyrrolo[3,2-f][1,7]naphthyridin-9-yl)pyrrolidin-3-yl]propane-2-sulfonamide] | – | 0.001 to 0.02 µM | > 0.02 µM

Reference: patent US9115133B2, “Substituted fused tricyclic compounds, compositions and medicinal applications thereof” (Advinus Therapeutics Limited, priority 2011, dated 2015)
